Results: patent publication US9084793B2, “Methods for treating Alzheimer's disease by administering certain synthetic compounds” (BEIJING JOEKAI BIOTECHNOLOGY LLC, priority 2011, dated 2015)
Entries after “also recorded” stand apart in the source; their conditions may differ.

Experiments:
Aβ42 transgenic flies = experiment: Pavlovian olfactory associative immediate memory in Aβ42 transgenic flies; assay type: in vivo, Drosophila; details: Aβ42 transgenic male flies, 7-day drug feeding, 50 μg/ml, tested day 10 after eclosion
Protocol: Behavioral screening was performed with 2000 synthetic compounds (purchased from TimTec LLC, USA) with structures that are presumably targeted to protein kinase activities (FIG. 1A). Only male flies were selected for 7-day drug treatment and then subjected to behavioral assay at day 10 after eclosion. […] Among them, 9 were tested in double transgenic mice and compounds were indicated to have positive results after 2 months of treatment (6- to 8-month-old) (FIG. 1A-G).

[1] = molecular target: T1, human EGFR expressed in COS-7 cells (Homo sapiens, UniProt P00533); experiment: Normal p-EGFR level in EGFRwt-expressing COS-7 cells without oligomeric Aβ42 (Western blot); assay type: cell-based; details: 100 μg/ml compound, EGFRwt-expressing COS-7 cells without oligomeric Aβ42 peptides
T1 construct: expressed in transfected cells; host or cells: COS-7
Protocol: FIG. 2. […] 100 μg/ml JKF-006, JKF-011 and JKF-027 were used to treat EGFR^wt-expressing COS-7 cells without oligomeric Aβ42 peptides. […] N=3-4.
(§1) COS-7 cells were cultured in normal Dulbecco's Modified Eagle Medium (D-MEM) containing 10% fetal bovine serum (Invitrogen) at 37° C. in 5% CO2. Transfection of the cells with an EGFR^WT plasmid was performed following the Lipofectamine 2000 manuals (Invitrogen). After 48 h, cells were washed with fresh medium once and incubated with 10 or 25 μg/ml Aβ42 oligomers for 15 min at 37° C. in 5% CO2. 0.5 μg/ml human EGF (Sigma) was used as a positive control. Cells were then washed with PBS for 3 times and collected.
(§2) Whole fly head or cells lysates were prepared using a RIPA buffer containing 0.3% SDS, 50 mM Tris-HCl, pH 7.4, 0.5% NP-40, 1% sodium deoxycholate, 150 mM NaCl, 5 mM EDTA, 1 tablet per 50 ml complete protease inhibitor cocktail (Roche Diagnostics). Lysates were diluted in an SDS sample buffer and separated on 10-20% Tris-Tricine gels (Invitrogen), and transferred to nitrocellulose membranes (Invitrogen). The membranes were boiled in PBS for 3 min, blocked with 5% non-fat dry milk and blotted with a first antibody. First antibodies used included mouse anti-Aβ42 (6E10, Covance Research Products), mouse anti-dEGFR (Abcam), rabbit anti-hEGFR (Cell Signaling), mouse anti-hEGFR-p (Cell Signaling) and rabbit anti-Actin (Sigma). Data were analyzed with the ImageJ software (National Institutes of Health).

[2] = molecular target: T1, human EGFR expressed in COS-7 cells; experiment: Oligomeric Aβ42-induced phosphorylation of EGFR in COS-7 cells transfected with EGFRwt plasmid (Western blot); assay type: cell-based; details: 10 μg/ml oligomeric Aβ42, COS-7 cells transfected with EGFRwt plasmid
Protocol: as §1
The preparation procedure was described previously (Dahlgren K, et al., J Biol Chem. 277:32046-53, 2002). Synthetic and recombinant wild type Aβ42 (AnaSpec, Inc.) was initially dissolved to 1 mM in hexafluoroisopropanol (Sigma).
Hexafluoroisopropanol was removed under vacuum in a Speed Vac, and the peptide film was stored at −20° C. For oligomer preparation, the peptide was first resuspended in DMSO to a concentration of 12.5 mg/ml and then diluted with DMEM/F-12 (phenol red-free, Invitrogen) to a final concentration of 500 μg/ml and incubated at 4° C. for 24 h.
as §2
Behavioral screening was performed with 2000 synthetic compounds (purchased from TimTec LLC, USA) with structures that are presumably targeted to protein kinase activities (FIG. 1A). […]

[3] = system: double transgenic mice (APPswe.PSEN1dE9); experiment: Morris water maze in double transgenic AD-model mice; assay type: in vivo, mouse; details: two-month treatment (6- to 8-month-old), lavage once daily

Compound | Rescue/prevention of Aβ42-induced memory loss (performance index) (Aβ42 transgenic flies) | Effect on normal (endogenous) p-EGFR level [1] | Effect on oligomeric Aβ42-induced increase of p-EGFR activity [2] | Rescue of Aβ-induced memory loss (Morris water maze) ([3]; 55 mg/kg/day) | Rescue of Aβ-induced memory loss (Morris water maze) ([3]; 58 mg/kg/day) | Rescue of Aβ-induced memory loss (Morris water maze) ([3]; 14 mg/kg/day)
2-Propenamide, 2-cyano-N-[2-(1H- indol-3-yl)ethyl]-3-[5- (4-morpholinyl)-2- furanyl]- [JKF-027] | effective in rescuing memory loss | None of the compounds changed the p-EGFR level; also recorded: incapable of affecting the endogenous p-EGFR level | capable of inhibiting induced p-EGFR activity; also recorded: significantly inhibit | Rescue of Aβ-induced memory loss; also recorded: effective results in rescuing the memory loss |  | 
N#C/C(=C/c1ccc(-c2cc(C(=O)O)ccc2Cl)o1)C(=O)Nc1ccc(F)cc1 [JKF-006, Benzoic acid, 4-chloro-3-[5-[2-cyano-3-[(4-fluorophenyl)amino]-3-oxo-1-propen-1-yl]-2-furanyl]-] | effective in rescuing memory loss | None of the compounds changed the p-EGFR level; also recorded: incapable of affecting the endogenous p-EGFR level | capable of inhibiting induced p-EGFR activity; also recorded: significantly inhibit |  | Rescue of Aβ-induced memory loss; also recorded: effective results in rescuing the memory loss | 
O=C1CNCCN1 [JKF-011, Piperazin-2-one] | effective in rescuing memory loss | None of the compounds changed the p-EGFR level; also recorded: incapable of affecting the endogenous p-EGFR level | capable of inhibiting induced p-EGFR activity; also recorded: significantly inhibit |  |  | Rescue of Aβ-induced memory loss; also recorded: effective results in rescuing the memory loss
